Experimental data reported in article PMC10935965, “An odorant receptor mediates the avoidance of Plutella xylostella against parasitoid” (BMC Biology, 2024).

What was measured:
[1] = target: T1, PxylOR16/PxylOrco (Plutella xylostella, UniProt V9SFT8); assay: two-electrode voltage clamp, Xenopus oocytes; assay type: cell-based; conditions: agonist, co-expressed with PxylOrco, holding potential -80 mV, Ringer's buffer
T1 construct: no tag stated; with Odorant receptor coreceptor
T1 sequence (V9SFT8 1-405): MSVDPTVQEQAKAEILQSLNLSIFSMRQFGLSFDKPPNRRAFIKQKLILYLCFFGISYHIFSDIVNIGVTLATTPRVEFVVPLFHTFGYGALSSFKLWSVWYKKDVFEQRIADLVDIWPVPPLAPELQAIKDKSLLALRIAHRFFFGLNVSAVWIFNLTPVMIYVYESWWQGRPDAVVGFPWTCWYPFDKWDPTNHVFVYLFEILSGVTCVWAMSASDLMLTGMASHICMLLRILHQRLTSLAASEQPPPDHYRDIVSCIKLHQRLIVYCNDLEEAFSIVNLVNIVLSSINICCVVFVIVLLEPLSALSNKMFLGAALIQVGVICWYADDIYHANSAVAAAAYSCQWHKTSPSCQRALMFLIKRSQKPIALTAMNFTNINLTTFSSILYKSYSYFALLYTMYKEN
T1 sequence (D0EZE1 1-471 partner): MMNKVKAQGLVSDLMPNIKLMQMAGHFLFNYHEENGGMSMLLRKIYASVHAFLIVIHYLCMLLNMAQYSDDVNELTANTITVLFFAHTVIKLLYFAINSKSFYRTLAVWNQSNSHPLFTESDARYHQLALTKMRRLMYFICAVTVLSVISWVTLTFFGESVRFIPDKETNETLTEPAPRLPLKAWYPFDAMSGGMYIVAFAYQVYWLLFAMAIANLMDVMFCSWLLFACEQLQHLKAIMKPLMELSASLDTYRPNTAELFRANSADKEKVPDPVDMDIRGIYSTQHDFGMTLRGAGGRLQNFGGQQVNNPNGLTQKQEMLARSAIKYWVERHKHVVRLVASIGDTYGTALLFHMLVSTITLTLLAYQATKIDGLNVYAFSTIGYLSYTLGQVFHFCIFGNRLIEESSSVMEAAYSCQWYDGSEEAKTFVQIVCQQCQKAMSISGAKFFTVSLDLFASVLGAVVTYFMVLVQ

[2] = target: T1, PxylOR16/PxylOrco; assay: two-electrode voltage clamp, Xenopus oocytes; assay type: cell-based

With `CCCCCCCO` [1-heptanol] the “inward current response at 10^-4 M” value [1] was “they also responded weakly to two other volatiles (octyl acetate and 1-heptanol)”.
Work on `CCCCCCC=O` [heptanal] yielded an EC50 [2] of 17.6 µM.
With `CCCCCCCCOC(C)=O` [octyl acetate] the “inward current response at 10^-4 M” value ([1]; weak agonist, 10^-4 M) was “they also responded weakly to two other volatiles (octyl acetate and 1-heptanol)”.
